# Data as given in patent US20260167654A1, “PLANT CELL WALL-DISSOLVING AGENT” (Kanazawa University, priority 2022, published 2026).
# Assays:
# [1] = Cellulose solubility (cellulose added in 1 wt % steps, heating and stirring 1 hour, visual); format: physicochemical
# Method: The cellulose solubility of C1imC2OE3C obtained in Synthesis Example 1, OE2imC2OE3C obtained in Synthesis Example 2, and OE2imC3C (R^1═H3C(OCH2CH2)2, A=imidazolium cation, B=—COO^−, and n=0 (a compound having no oxyalkylene structure between the cationic and anionic moieties; the compound described in Non-Patent Literature 2)) as a comparative example was measured. […] The concentration at which cellulose dissolution was confirmed was visually measured.
# Thus, when heating to 80° C., a stirrer rotated in C1imC2P and started to rotate smoothly at 120° C. Accordingly, a cellulose solubility experiment was performed at 120° C. Avicel was added in increments of 1 wt %, and when dissolved over 1 hour, additional Avicel was added in increments of 1 wt %. As a result of the experiment, C1imC2P dissolved 4 wt % Avicel.
# [2] = Viscosity measurement (Brookfield viscometer, CPE52 spindle); format: physicochemical
# Method: The viscometer used was Brookfield LVDV2TCP with a CPE52 spindle, or Brookfield RVDV2T with a CPE52 spindle.
# C1imC2OE3C obtained in Synthesis Example 1 and OE2imC2OE3C obtained in Synthesis Example 2 were measured for viscosity at 80° C. The viscometer used was Brookfield LVDV2TCP with a CPE52 spindle. The viscometer was heated to 80° C. by passing warm water therethrough, and the viscosity of the samples was measured.
# [3] = State of the zwitterions at 25° C.; format: physicochemical; conditions: room temperature (25° C.)
# Method: C1imC2OE3C (R^1═CH3, A=imidazolium cation, R^3═CH2CH2, n=3, and B=—COO^−) obtained in Synthesis Example 1 and OE2imC2OE3C(R^1═H3C(OCH2CH2)2, A=imidazolium cation, R^3═CH2CH2, n=3, and B=—COO^−) obtained in Synthesis Example 2 were both liquid at room temperature (25° C.).
# Kluyveromyces marxianus = assay: Toxicity to yeast (OD600 of culture in liquid medium); format: cell-based; conditions: culturing at 50° C., concentration and time of the value not stated
# Method: The toxicity of C1imC2P to yeast was examined. The yeast used was Kluyveromyces marxianus. C1imC2P was added to a liquid medium at concentrations of 0 mol/L, 0.01 mol/L, 0.05 mol/L, 0.1 mol/L, 0.5 mol/L and 1.0 mol/L respectively. This was inoculated with bacteria, and while culturing at 50° C., OD600 was measured with a plate reader 0, 2, 4, and 6 hours later. OD600 indicates the density of bacterial cells. Further, relative OD600 is a relative parameter when the control is 1.00. A higher value of relative OD600 indicates a lower toxicity of the zwitterion. The relative OD600 of C1imC2P was 0.77, indicating low toxicity.
# [4] = TG-DTA pyrolysis temperature (weight loss on heating at 10° C./min); format: physicochemical
# Method: Experimental method: Under N2 atmosphere, the temperature was increased to 500° C. at a rate of 10° C./min starting at room temperature. The pyrolysis point was evaluated at the intersection of the tangent lines between the steady state and the decomposition.
# C1imC2OE3C obtained in Synthesis Example 1 was heated at a rate of 10° C./min, and the temperature at which the weight loss occurred (pyrolysis temperature) was measured. As a result, this compound was thermally decomposed at about 249° C. and was stable up to 249° C.
# [5] = Differential scanning calorimetry; format: physicochemical
# Method: Experimental method: Under N2 atmosphere, liquid nitrogen was used during cooling. After the temperature was increased at a rate of 10° C./min to 20° C. below the pyrolysis point starting at 25° C., two sets of “cooling to −100° C. at a rate of −10° C./min→heating to 20° C. below the pyrolysis point at a rate of 10° C./min” were repeated (holding time: 5 minutes for each stage), followed by cooling down to 25° C.
# C1imC2OE3C obtained in Synthesis Example 1 was subjected to differential scanning calorimetry.
Viscosity at 80° C. [2],State at 25° C. [3],"Viscosity (in words) ([2]; 100 wt % zwitterion, room temperature (25° C.))",stable (does not decompose) up to temperature [4],pyrolysis temperature (temperature at which the weight loss occurred) ([4]; heated at a rate of 10° C./min),did not change / in a liquid state from room temperature up to temperature [5],SMILES,Cellulose solubility ([1]; 100° C.),Cellulose solubility ([1]; 120° C.),relative OD600 (control is 1.00) (Kluyveromyces marxianus),"Cellulose solubility (Avicel dissolved) ([1]; 120° C., Avicel added in increments of 1 wt %, 1 hour each)"
810 mPa · s,liquid,,,,,COCCOCC[n+]1ccn(CCOCCOCCOCCC(=O)[O-])c1 [OE2imC2OE3C],11 wt %,11 wt %,,
,liquid,very high viscosity,,,,C[n+]1ccn(CCOP(=O)([O-])O)c1 [Zwitterion C1imC2P],,,0.77,4 wt %
940 mPa · s,solid,,,,,"COCCOCCn1cc[n+](CCCC(=O)[O-])c1 [OE2imC3C, reference compound]",6 wt %,10 wt %,,
"2,500 mPa · s",liquid,,up to 249 °C,about 249 °C,around 250 °C,C[n+]1ccn(CCOCCOCCOCCC(=O)[O-])c1 [Zwitterion C1imC2OE3C],11 wt %,14 wt %,,
